Patent US20200368247A1, “CENICRIVIROC FOR THE TREATMENT OF FIBROSIS” (Tobira Therapeutics, Inc., priority 2014, published 2020)

Legend:
Assay type in all cases: in vivo, human
[1] = Study 202 post-hoc APRI and FIB-4 fibrosis index scores
Experimental: APRI and FIB-4 scores were calculated. Change in score category from baseline (BL) to Weeks 24 and 48 was assessed in patients with non-missing data. Correlations between changes from BL in APRI and FIB-4 scores, and MCP-1 (CCR2 ligand) and sCD14 (inflammatory biomarker) levels were evaluated.

[2] = Study 202 biomarkers of inflammation
Experimental: As an exploratory analysis, levels of inflammation biomarkers MCP-1, sCD14, high sensitivity C-reactive protein [hs-CRP], interleukin-6 [IL-6], D-dimer, and fibrinogen) were measured. Baseline values and changes from baseline at Week 24 and Week 48 of MCP-1, sCD14, hs-CRP, IL-6, D-dimer, and fibrinogen are summarized in Table 25.
The sCD14 samples were originally analyzed in 2 separate batches: Batch 1 included samples leading up to the Week 24 primary analysis and Batch 2 included Week 32 and Week 48 (end of study) samples. A repeat analysis of archived samples all analyzed in one batch was conducted for consistency in analysis across time points. To control for the effects of covariates, a linear mixed-model repeated-measures analysis was conducted on the changes from baseline in sCD14 (analysis dated September 2013).

[3] = Study 202 fasting metabolic laboratory parameters
Source text: All abnormalities in total cholesterol, LDL cholesterol, triglycerides, or glucose were Grade 1 or Grade 2.
Mean baseline values and changes from baseline in HbA1c, HOMA-IR, fasting LDL, fasting HDL, fasting total cholesterol, fasting total cholesterol/HDL ratio, and fasting triglycerides are shown in Table 36.

[4] = Study 202 ECG abnormalities; conditions: All CVC (N = 115); EFV (N = 28), through Week 48
[5] = All CVC (N = 115), EFV (N = 28), through Week 48

Question: For `O=C1Nc2ccc(Cl)cc2[C@@](C#CC2CC2)(C(F)(F)F)O1` [EFV, efavirenz, reference compound], which “APRI 0.5-1.5, patients” value ([1]; Baseline) is on record?
Answer: 4%

Question: And the “APRI <0.5, patients” value ([1]; Baseline)?
Answer: 96%

Question: And the “FIB-4 <1.45, patients” value ([1]; Baseline)?
Answer: 100%

Question: What about the “subjects with decrease in FIB-4 score by one category” value ([1]; EFV arm, Weeks 24 and 48) of the same compound?
Answer: no subject

Question: What about the “APRI <0.5, patients” value ([1]; Week 24) of the same compound?
Answer: 100%

Question: And the “APRI decreased 1 category from baseline, patients” value ([1]; Week 24)?
Answer: 5%

Question: And the “FIB-4 <1.45, patients” value ([1]; Week 24)?
Answer: 100%

Question: And the “APRI <0.5, patients” value ([1]; Week 48)?
Answer: 100%

Question: What about the “APRI decreased 1 category from baseline, patients” value ([1]; Week 48) of the same compound?
Answer: 6%

Question: What about the “FIB-4 1.45-3.25, patients” value ([1]; Week 48) of the same compound?
Answer: 6%

Question: And the “FIB-4 <1.45, patients” value ([1]; Week 48)?
Answer: 94%

Question: What about the “sCD14 Baseline value, Mean” value ([2]; EFV 600 mg) of the same compound?
Answer: 2e+06 pg/mL

Question: And the “sCD14 change from baseline at Week 12, Mean” value ([2]; EFV 600 mg)?
Answer: 90000 pg/mL

Question: What about the “sCD14 change from baseline at Week 12, Median” value ([2]; EFV 600 mg) of the same compound?
Answer: 180000 pg/mL

Question: What about the “sCD14 change from baseline at Week 24, Mean” value ([2]; EFV 600 mg) of the same compound?
Answer: 230000 pg/mL

Question: What about the “sCD14 change from baseline at Week 24, Median” value ([2]; EFV 600 mg) of the same compound?
Answer: 130000 pg/mL

Question: And the “sCD14 change from baseline at Week 32, Mean” value ([2]; EFV 600 mg)?
Answer: 480000 pg/mL

Question: What about the “sCD14 change from baseline at Week 32, Median” value ([2]; EFV 600 mg) of the same compound?
Answer: 170000 pg/mL

Question: What about the “sCD14 change from baseline at Week 48, Mean” value ([2]; EFV 600 mg) of the same compound?
Answer: 640000 pg/mL

Question: And the “sCD14 change from baseline at Week 48, Median” value ([2]; EFV 600 mg)?
Answer: 460000 pg/mL

Question: And the “plasma MCP-1 over time” value ([2]; Study 202, up to Week 48)?
Answer: remained at baseline values

Question: What about the “Any fasting laboratory abnormality, worst Grade 1” value [3, 5] of the same compound?
Answer: 6 (21%) n (%)

Question: And the “Any fasting laboratory abnormality, worst Grade 2” value [3, 5]?
Answer: 3 (11%) n (%)

Question: And the “Any fasting laboratory abnormality, worst Grade 3” value [3, 5]?
Answer: 0 n (%)

Question: What about the “Any fasting laboratory abnormality, worst Grade 4” value [3, 5] of the same compound?
Answer: 0 n (%)

Question: What about the “Any graded (Grade 1-4) fasting laboratory abnormality” value [3, 5] of the same compound?
Answer: 9 (32%) n (%)

Question: What about the “Fasting LDL cholesterol abnormality, Grade 1” value [3, 5] of the same compound?
Answer: 3 (11%) n (%)

Question: What about the “Fasting LDL cholesterol abnormality, Grade 2” value [3, 5] of the same compound?
Answer: 3 (11%) n (%)

Question: And the “Fasting LDL cholesterol abnormality, Grade 3” value [3, 5]?
Answer: 0 n (%)

Question: And the “Fasting LDL cholesterol abnormality, Grade 4” value [3, 5]?
Answer: 0 n (%)

Question: What about the “Fasting LDL cholesterol abnormality, any grade” value [3, 5] of the same compound?
Answer: 6 (21%) n (%)

Question: And the “Fasting glucose (serum, high) abnormality, Grade 1” value [3, 5]?
Answer: 2 (7%) n (%)

Question: And the “Fasting glucose (serum, high) abnormality, Grade 2” value [3, 5]?
Answer: 0 n (%)

Question: What about the “Fasting glucose (serum, high) abnormality, Grade 3” value [3, 5] of the same compound?
Answer: 0 n (%)

Question: And the “Fasting glucose (serum, high) abnormality, Grade 4” value [3, 5]?
Answer: 0 n (%)

Question: And the “Fasting glucose (serum, high) abnormality, any grade” value [3, 5]?
Answer: 2 (7%) n (%)

Question: And the “Fasting total cholesterol abnormality, Grade 1” value [3, 5]?
Answer: 6 (21%) n (%)

Question: What about the “Fasting total cholesterol abnormality, Grade 2” value [3, 5] of the same compound?
Answer: 3 (11%) n (%)

Question: And the “Fasting total cholesterol abnormality, Grade 3” value [3, 5]?
Answer: 0 n (%)

Question: What about the “Fasting total cholesterol abnormality, Grade 4” value [3, 5] of the same compound?
Answer: 0 n (%)

Question: What about the “Fasting total cholesterol abnormality, any grade” value [3, 5] of the same compound?
Answer: 9 (32%) n (%)

Question: And the “Fasting triglycerides abnormality, Grade 1” value [3, 5]?
Answer: 0 n (%)

Question: What about the “Fasting triglycerides abnormality, Grade 2” value [3, 5] of the same compound?
Answer: 0 n (%)

Question: And the “Fasting triglycerides abnormality, Grade 3” value [3, 5]?
Answer: 0 n (%)

Question: And the “Fasting triglycerides abnormality, Grade 4” value [3, 5]?
Answer: 0 n (%)

Question: What about the “Fasting triglycerides abnormality, any grade” value [3, 5] of the same compound?
Answer: 0 n (%)

Question: What about the “Fasting HDL, mean change from baseline” value ([3]; All CVC, EFV, Week 4) of the same compound?
Answer: 5.90 mg/dL

Question: What about the “Fasting total cholesterol, mean change from baseline” value ([3]; All CVC, EFV, Week 4) of the same compound?
Answer: 19 mg/dL

Question: What about the “Fasting total cholesterol/HDL ratio, mean change from baseline” value ([3]; All CVC, EFV, Week 4) of the same compound?
Answer: −0.07

Question: And the “Fasting triglycerides, mean change from baseline” value ([3]; All CVC, EFV, Week 4)?
Answer: 23 mg/dL

Question: And the “HOMA-IR, mean change from baseline” value ([3]; All CVC, EFV, Week 4)?
Answer: 0.30

Question: And the “HbA1c, mean change from baseline” value ([3]; All CVC, EFV, Week 4)?
Answer: −0.01 % Hb

Question: And the “Fasting total cholesterol, mean change from baseline” value ([3]; All CVC, EFV, Week 12)?
Answer: 18 mg/dL

Question: And the “Fasting total cholesterol/HDL ratio, mean change from baseline” value ([3]; All CVC, EFV, Week 12)?
Answer: −0.41

Question: What about the “Fasting triglycerides, mean change from baseline” value ([3]; All CVC, EFV, Week 12) of the same compound?
Answer: 3 mg/dL

Question: And the “HOMA-IR, mean change from baseline” value ([3]; All CVC, EFV, Week 12)?
Answer: 0.06

Question: What about the “HbA1c, mean change from baseline” value ([3]; All CVC, EFV, Week 12) of the same compound?
Answer: −0.07 % Hb

Question: And the “Fasting total cholesterol, mean change from baseline” value ([3]; All CVC, EFV, Week 24)?
Answer: 24 mg/dL

Question: And the “Fasting total cholesterol/HDL ratio, mean change from baseline” value ([3]; All CVC, EFV, Week 24)?
Answer: −0.47

Question: And the “Fasting triglycerides, mean change from baseline” value ([3]; All CVC, EFV, Week 24)?
Answer: 10 mg/dL

Question: What about the “HbA1c, mean change from baseline” value ([3]; All CVC, EFV, Week 24) of the same compound?
Answer: −0.01 % Hb

Question: What about the “Fasting total cholesterol, mean change from baseline” value ([3]; All CVC, EFV, Week 48) of the same compound?
Answer: 26 mg/dL

Question: And the “HOMA-IR, mean change from baseline” value ([3]; All CVC, EFV, Week 48)?
Answer: −0.12

Question: What about the “HbA1c, mean change from baseline” value ([3]; All CVC, EFV, Week 48) of the same compound?
Answer: 0.08 % Hb

Question: And the “change in LDL cholesterol and HDL cholesterol” value ([3]; EFV, through Week 48)?
Answer: increases

Question: What about the “HR Abnormally high (120 bpm ≤ abnormally high)” value [4] of the same compound?
Answer: 0 n (%)

Question: And the “HR Abnormally low (≤ 50 bpm)” value [4]?
Answer: 0 n (%)

Question: And the “PR Abnormally high (210 ms ≤ abnormally high)” value [4]?
Answer: 1 (4%) n (%)

Question: And the “QRS Abnormally high (120 ms ≤ abnormally high)” value [4]?
Answer: 0 n (%)

Question: And the “QRS Abnormally low (≤ 50 ms)” value [4]?
Answer: 0 n (%)

Question: And the “QTcB interval Borderline (450 ms ≤ borderline ≤ 480 ms)” value [4]?
Answer: 3 (11%) n (%)

Question: And the “QTcB interval Increase by >30-60 ms” value [4]?
Answer: 4 (14%) n (%)

Question: And the “QTcB interval Increase by >60 ms” value [4]?
Answer: 0 n (%)

Question: And the “QTcB interval Pathologically prolonged (> 500 ms)” value [4]?
Answer: 0 n (%)

Question: What about the “QTcB interval Prolonged (480 ms < prolonged ≤ 500 ms)” value [4] of the same compound?
Answer: 0 n (%)

Question: And the “QTcF interval Borderline (450 ms ≤ borderline ≤ 480 ms)” value [4]?
Answer: 0 n (%)

Question: What about the “QTcF interval Increase by >30-60 ms” value [4] of the same compound?
Answer: 4 (14%) n (%)

Question: What about the “QTcF interval Increase by >60 ms” value [4] of the same compound?
Answer: 0 n (%)

Question: What about the “QTcF interval Pathologically prolonged (> 500 ms)” value [4] of the same compound?
Answer: 0 n (%)

Question: And the “QTcF interval Prolonged (480 ms < prolonged ≤ 500 ms)” value [4]?
Answer: 0 n (%)
